Test results published in patent publication US7238377B2, “Use of an oil of the gourd family for inhibiting 5 alpha-reductase activity” (Laboratoires Expanscience, priority 2001, dated 2007).
“And” between values parts separate entries of the source, which are not always exact repeats. Equal values may be shown once. Marks after values point to notes of the source that are not given here.

Test system: 5α-reductase
Assay: In vitro evaluation of 5α-reductase activity: conversion of testosterone to 5α-dihydrotestosterone in normal human dermal fibroblast cultures
Assay type: cell-based
Conditions: finasteride 30 ng/ml
Text: In vitro evaluation of the 5α-reductase activity of the balsam pear oil on the conversion of testosterone to 5α-dihydrotestosterone in normal human dermal fibroblast cultures
It is proposed to evaluate the effect of the solid oil (butter) extracted from seeds of balsam pear (Momordica charantia), extracted with solvent (hexane), on 5α-reductase activity. An in vitro model of normal human dermal fibroblast cultures was selected.
The balsam pear oil was provided by the Laboratoires Pharmascience and was stored at +4° C. until the time it was used. The effects of the test product were compared with those obtained in the presence of finasteride, used as reference product (finasteride, principle active agent of the tablets CHIBRO-PROSCAR: MERCK SHARP & DOHME CHIBRET).
The radioactive testosterone (labeled with tritium at positions 1, 2, 6 and 7, specific activity 95 Ci/mmol) was provided by AMERSHAM, the nonradiolabeled testosterone was provided by SIGMA.
The fibroblast culture medium (FCM) consisted of MEM/M199 (3:1, v/v) supplemented with penicillin (50 IU/ml), streptomycin ([…]), sodium bicarbonate (0.2%, w/v) and FCS (10%, v/v).
The test system consisted of normal human dermal fibroblasts cultured in monolayer. The fibroblasts were isolated from a residue of an abdominoplasty carried out on a person (subject No. i0006). The cells were used at the third passage; they were cultured, until the monolayers reached confluency, in the FCM medium at 37° C. in a humid atmosphere containing 5% CO2.
The fibroblast incubation medium (FIM) consisted of FCM supplemented with tritiated testosterone (1.6×10^−7 M, i.e. 6.32 μCi/ml) and nonradiolabeled testosterone (3.84×10^−6 M).
The finasteride was extracted from the tablets by grinding, stirring in DMSO, centrifugation, and then collection of the supernatant (theoretical concentration of this solution: 1 mg/ml of finasteride), which was tested at 30 ng/ml. […]
The migration solvent was a mixture of dichloromethane and ether (7:3, v/v). At the end of migration, the silica plates were read using a BERTHOLD radioactivity scanner.
Comparison of the Rf (relative retention factor) values determined for the standards with those obtained for the various radioactive metabolites made it possible to identify these metabolites.
The metabolization of the testosterone to 5α-dihydro-testosterone under the various experimental conditions was calculated; the results (areas of the 5α-dihydro-testosterone peaks counted by the BERTHOLD scanner) are expressed in pmol of 5α-DHT formed per […]. They have also been expressed as percentage of the 5α-reductase activity present in the “control cells” group. […]

CC(C)(C)NC(=O)[C@H]1CC[C@H]2[C@@H]3CC[C@H]4NC(=O)C=C[C@]4(C)[C@H]3CC[C@]12C [Finasteride, finasteride]
pmol of 5α-DHT/μg of DNA (individual cultures) (2 h preincubation, 24 h incubation, triplicate values, control cells 2.68, 1.91, 1.56): 0.76 pmol of 5α-DHT/μg of DNA and 0.48 pmol of 5α-DHT/μg of DNA and 0.62 pmol of 5α-DHT/μg of DNA | % control (5α-reductase activity) (24 h incubation, control cells = 100): 30% | pmol of 5α-DHT/μg of DNA, Mean (24 h incubation, control cells mean 2.05, p<0.05 vs control): 0.62** pmol of 5α-DHT/μg of DNA | inhibition of the 5α-reductase activity (p<0.05): 70%
